Measured values as given in publication PMC3914206.

Columns and labels:
Assay type in all cases: binding
[1] = target: T1, panel of 442 kinases (Homo sapiens, UniProt P42680); settings: kinase TEC; compound concentration 10 µM
T1 construct: purchased KINOMEscan
T1 sequence (P42680 1-631): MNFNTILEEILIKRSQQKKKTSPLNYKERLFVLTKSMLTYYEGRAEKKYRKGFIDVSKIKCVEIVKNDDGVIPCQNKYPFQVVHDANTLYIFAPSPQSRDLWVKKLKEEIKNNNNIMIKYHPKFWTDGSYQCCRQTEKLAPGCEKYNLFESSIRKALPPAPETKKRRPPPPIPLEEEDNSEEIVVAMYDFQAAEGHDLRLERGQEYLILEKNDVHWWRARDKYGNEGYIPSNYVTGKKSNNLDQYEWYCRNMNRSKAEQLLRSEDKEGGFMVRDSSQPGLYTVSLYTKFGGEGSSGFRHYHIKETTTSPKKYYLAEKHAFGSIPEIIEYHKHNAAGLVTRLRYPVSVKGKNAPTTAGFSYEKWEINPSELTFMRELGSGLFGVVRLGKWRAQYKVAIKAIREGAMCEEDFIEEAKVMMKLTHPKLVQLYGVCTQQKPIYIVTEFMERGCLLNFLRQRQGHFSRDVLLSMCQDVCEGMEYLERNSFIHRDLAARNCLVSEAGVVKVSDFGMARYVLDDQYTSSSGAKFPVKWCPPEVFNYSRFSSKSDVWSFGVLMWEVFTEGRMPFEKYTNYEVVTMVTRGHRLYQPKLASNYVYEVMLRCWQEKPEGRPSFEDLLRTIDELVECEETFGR
Excerpt: (§1) We assessed the selectivity of members of this scaffold using the KINOMEscan methodology across a near comprehensive panel of 442 kinases [[18,27]].

[2] = target: T2, panel of 442 kinases (Homo sapiens, UniProt Q16513); settings: Compound Concentration 10 µM
T2 construct: purchased KINOMEscan
Excerpt: as §1

[3] = target: T3, panel of 442 kinases (Homo sapiens, UniProt P54646); settings: Compound Concentration 10 µM
T3 construct: purchased KINOMEscan
Excerpt: as §1

T2 sequence (Q16513 whole entry): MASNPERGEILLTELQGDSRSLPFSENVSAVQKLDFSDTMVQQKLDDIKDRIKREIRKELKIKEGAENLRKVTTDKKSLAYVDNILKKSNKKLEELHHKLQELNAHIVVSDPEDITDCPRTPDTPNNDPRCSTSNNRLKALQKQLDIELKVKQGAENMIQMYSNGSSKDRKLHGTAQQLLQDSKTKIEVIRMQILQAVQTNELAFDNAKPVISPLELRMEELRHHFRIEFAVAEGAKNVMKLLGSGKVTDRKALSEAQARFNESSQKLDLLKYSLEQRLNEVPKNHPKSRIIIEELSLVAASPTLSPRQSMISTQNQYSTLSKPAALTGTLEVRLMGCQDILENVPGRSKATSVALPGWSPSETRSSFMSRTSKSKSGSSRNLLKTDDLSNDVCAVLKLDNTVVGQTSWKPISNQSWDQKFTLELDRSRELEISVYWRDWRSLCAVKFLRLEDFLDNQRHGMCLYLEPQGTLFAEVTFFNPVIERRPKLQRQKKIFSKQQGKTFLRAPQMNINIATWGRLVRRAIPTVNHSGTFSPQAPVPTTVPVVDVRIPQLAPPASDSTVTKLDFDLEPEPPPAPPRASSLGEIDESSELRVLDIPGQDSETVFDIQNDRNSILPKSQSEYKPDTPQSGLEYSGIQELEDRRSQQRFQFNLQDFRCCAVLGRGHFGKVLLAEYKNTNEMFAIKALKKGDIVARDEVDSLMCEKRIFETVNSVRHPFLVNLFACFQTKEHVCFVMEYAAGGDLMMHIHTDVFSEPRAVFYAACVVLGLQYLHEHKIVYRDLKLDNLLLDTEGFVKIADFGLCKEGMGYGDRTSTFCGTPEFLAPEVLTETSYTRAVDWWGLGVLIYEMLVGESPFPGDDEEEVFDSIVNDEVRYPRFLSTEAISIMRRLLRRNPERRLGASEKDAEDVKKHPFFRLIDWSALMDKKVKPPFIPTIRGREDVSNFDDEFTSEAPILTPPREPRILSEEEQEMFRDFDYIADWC
T3 sequence (P54646 whole entry): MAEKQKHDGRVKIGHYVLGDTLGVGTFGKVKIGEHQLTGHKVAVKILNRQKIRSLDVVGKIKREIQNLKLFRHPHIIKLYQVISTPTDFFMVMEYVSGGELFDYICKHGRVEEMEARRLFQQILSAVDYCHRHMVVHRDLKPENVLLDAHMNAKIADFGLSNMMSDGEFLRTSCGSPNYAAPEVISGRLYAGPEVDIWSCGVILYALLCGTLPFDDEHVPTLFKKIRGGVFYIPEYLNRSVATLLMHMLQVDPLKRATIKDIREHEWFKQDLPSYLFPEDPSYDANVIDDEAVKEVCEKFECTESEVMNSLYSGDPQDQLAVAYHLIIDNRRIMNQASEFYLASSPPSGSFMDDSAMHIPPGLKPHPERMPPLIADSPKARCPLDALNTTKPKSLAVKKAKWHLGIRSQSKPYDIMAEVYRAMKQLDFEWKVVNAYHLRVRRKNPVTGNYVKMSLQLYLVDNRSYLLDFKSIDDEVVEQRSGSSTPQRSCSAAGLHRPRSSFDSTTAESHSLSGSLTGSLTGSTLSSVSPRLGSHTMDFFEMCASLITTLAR

Row | Structure (SMILES) | % Ctrl, TEC [1] | KINOMEscan: PKN2 [2] | KINOMEscan: AMPK-alpha2 [3]
1 | COc1cc(C(=O)N2CCC(N3CCN(C)CC3)CC2)ccc1Nc1ncc2c(n1)N(C)c1ccccc1C(=O)N2C [15 (LRRK2-IN-1)] | 100 % Ctrl | 95 | 66
2 | COc1cc(C(=O)N2CCC(N3CCN(C)CC3)CC2)ccc1Nc1ncc2c(n1)N1CCc3cccc(c31)C(=O)N2C [Compound 24] | 100 % Ctrl | 82 | 
3 | COc1cc(C(=O)N2CCC(N3CCN(C)CC3)CC2)ccc1Nc1ncc2c(n1)N(C1CCCC1)c1ccccc1C(=O)N2C [Compound 25, 11-cyclopentyl-2-((2-methoxy-4-(4-(4-methylpiperazin-1-yl)piperidine-1-carbonyl)phenyl)amino)-5-methyl-5H-benzo[e]pyrimido[5,4-b][1,4]diazepin-6(11H)-one] | 91 % Ctrl | 100 | 76
4 | CCOc1cc(C(=O)N2CCC(N3CCN(C)CC3)CC2)ccc1Nc1ncc2c(n1)N(C1CCCC1)c1ccccc1C(=O)N2C [Compound 26] | 100 % Ctrl | 100 | 100
